Key:
Type in all cases: in vivo
[1] = test system: Diabrotica balteata (Corn Root Worm); assay: Example B1: Diabrotica balteata (corn root worm), sprayed maize sprouts on agar, L2 larvae; conditions: 96 h, application rate of 200 ppm, 4 days after infestation, in comparison to untreated samples, read-out: effect in at least one of the two categories (mortality or growth inhibition)
Procedure: Example B1: Diabrotica balteata (Corn Root Worm
Maize sprouts placed onto an agar layer in 24-well microtiter plates were treated with aqueous test solutions prepared from 10′000 ppm DMSO stock solutions by spraying. After drying, the plates were infested with L2 larvae (6 to 10 per well). The samples were assessed for mortality and growth inhibition in comparison to untreated samples 4 days after infestation.

[2] = test system: Euschistus heros (Neotropical Brown Stink Bug); assay: Example B2: Euschistus heros (neotropical brown stink bug), sprayed soybean leaves, N2 nymphs; conditions: 120 h, application rate of 200 ppm, 5 days after infestation, in comparison to untreated samples, read-out: effect in at least one of the two categories (mortality or growth inhibition)
Procedure: Example B2: Euschistus heros (Neotropical Brown Stink Bug
Soybean leaves on agar in 24-well microtiter plates were sprayed with aqueous test solutions prepared from 10′000 ppm DMSO stock solutions. After drying the leaves were infested with N2 nymphs. The samples were assessed for mortality and growth inhibition in comparison to untreated samples 5 days after infestation.

[3] = test system: Frankliniella occidentalis (Western Flower Thrips); assay: Example B3: Frankliniella occidentalis (western flower thrips), sprayed sunflower leaf discs; conditions: foliar, 168 h, application rate of 200 ppm, population of mixed ages, 7 days after infestation
Procedure: Example B3: Frankliniella occidentalis (Western Flower Thrips
Sunflower leaf discs were placed on agar in 24-well microtiter plates and sprayed with aqueous test solutions prepared from […] stock solutions. After drying the leaf discs were infested with a Frankliniella population of mixed ages. The samples were assessed for mortality 7 days after infestation.

[4] = test system: Plutella xylostella (Diamond Back Moth); assay: Example B4: Plutella xylostella (diamond back moth), treated artificial diet, eggs; conditions: 192 h, application rate of 200 ppm, 8 days after infestation, in comparison to untreated samples, read-out: effect in at least one of the two categories (mortality or growth inhibition)
Procedure: Example B4: Plutella xylostella (Diamond Back Moth
24-well microtiter plates with artificial diet were treated with aqueous test solutions prepared from 10′000 ppm DMSO stock solutions by pipetting. After drying, Plutella eggs were pipetted through a plastic stencil onto a gel blotting paper and the plate was closed with it. The samples were assessed for mortality and growth inhibition in comparison to untreated samples 8 days after infestation.

[5] = test system: Myzus persicae (Green Peach Aphid); assay: Example B5: Myzus persicae (green peach aphid), feeding/contact activity, sprayed sunflower leaf discs; conditions: foliar, 144 h, application rate of 200 ppm, aphid population of mixed ages, 6 days after infestation
Procedure: Example B5: Myzus persicae (Green Peach Aphid). Feeding/Contact Activity
Sunflower leaf discs were placed onto agar in a 24-well microtiter plate and sprayed with aqueous test solutions prepared from 10′000 ppm DMSO stock solutions. After drying, the leaf discs were infested with an aphid population of mixed ages. The samples were assessed for mortality 6 days after infestation.

[6] = test system: Bemisia tabaci (Cotton White Fly); assay: Example B6: Bemisia tabaci (cotton white fly), feeding/contact activity, sprayed cotton leaf discs; conditions: foliar, 144 h, application rate of 200 ppm, adult white flies, 6 days after incubation
Procedure: Example B6: Bemisia tabaci (Cotton White Fly). Feeding/Contact Activity
Cotton leaf discs were placed on agar in 24-well microtiter plates and sprayed with aqueous test solutions prepared from 10′000 ppm DMSO stock solutions. After drying the leaf discs were infested with adult white flies. The samples were checked for mortality 6 days after incubation.

[7] = test system: Spodoptera littoralis (Egyptian Cotton Leaf Worm); assay: Example B7: Spodoptera littoralis (Egyptian cotton leaf worm), sprayed cotton leaf discs, L1 larvae; conditions: foliar, 72 h, application rate of 200 ppm, 3 days after infestation, in comparison to untreated samples
In short: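 Cotton leaf discs on agar were sprayed with aqueous test solutions made from 10′000 ppm DMSO stocks, dried, and infested with five L1 larvae. Mortality, anti-feeding and growth inhibition were scored against untreated samples 3 days after infestation; control means any category exceeds the untreated sample.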

[8] = test system: Myzus persicae (Green Peach Aphid); assay: Example B8: Myzus persicae (green peach aphid), systemic activity, pea seedling roots in test solution; conditions: 144 h, test rate of 24 ppm, aphid population of mixed ages, 6 days after placing seedlings into test solutions
Procedure: Example B8: Myzus persicae (Green Peach Aphid). Systemic Activity
Roots of pea seedlings infested with an aphid population of mixed ages were placed directly into aqueous test solutions prepared from 10′000 DMSO stock solutions. The samples were assessed for mortality 6 days after placing seedlings into test solutions.

CCS(=O)(=O)c1cc(N=S(C)(C)=O)cnc1-c1nc2cc(S(=N)(=O)C(F)(F)F)ccc2o1 (stereo not drawn) [P1, [2-[5-[[dimethyl(oxo)-λ^6-sulfanylidene]amino]-3-ethylsulfonyl-2-pyridyl]-1,3-benzoxazol-5-yl]-imino-oxo-(trifluoromethyl)-λ^6-sulfane]
≥ 80%: percent effect (mortality or growth inhibition) at 200 ppm [1] | effect (mortality or growth inhibition) at 200 ppm [2] | mortality at 200 ppm [3] | percent effect (mortality or growth inhibition) at 200 ppm [4] | mortality at 200 ppm [5] | mortality at 200 ppm [6] | percent control (mortality, anti-feeding effect or growth inhibition) at 200 ppm [7]

CCN=S(=O)(c1ccc2oc(-c3ncc(N=S(C)(C)=O)cc3S(=O)(=O)CC)nc2c1)C(F)(F)F (stereo not drawn) [P2, [2-[5-[[dimethyl(oxo)-λ^6-sulfanylidene]amino]-3-ethylsulfonyl-2-pyridyl]-1,3-benzoxazol-5-yl]-ethylimino-oxo-(trifluoromethyl)-λ^6-sulfane]
≥ 80%: percent effect (mortality or growth inhibition) at 200 ppm [1] | effect (mortality or growth inhibition) at 200 ppm [2] | mortality at 200 ppm [3] | percent effect (mortality or growth inhibition) at 200 ppm [4] | percent control (mortality, anti-feeding effect or growth inhibition) at 200 ppm [7]

CCS(=O)(=O)c1cc(C2(C#N)CC2)cnc1-c1nc2cc(S(=N)(=O)C(F)(F)F)ccc2o1 (stereo not drawn) [P7, 1-[5-ethylsulfonyl-6-[5-(trifluoromethylsulfonimidoyl)-1,3-benzoxazol-2-yl]-3-pyridyl]cyclopropanecarbonitrile]
≥ 80%: percent effect (mortality or growth inhibition) at 200 ppm [1] | effect (mortality or growth inhibition) at 200 ppm [2] | percent effect (mortality or growth inhibition) at 200 ppm [4] | mortality at 200 ppm [6] | percent control (mortality, anti-feeding effect or growth inhibition) at 200 ppm [7]

CCS(=O)(=O)c1cc(C2CC2)cnc1-c1nc2cc(S(=N)(=O)C(F)(F)F)ccc2o1 (stereo not drawn) [P12, [2-(5-cyclopropyl-3-ethylsulfonyl-2-pyridyl)-1,3-benzoxazol-5-yl]-imino-oxo-(trifluoromethyl)-λ^6-sulfane]
≥ 80%: percent effect (mortality or growth inhibition) at 200 ppm [1] | effect (mortality or growth inhibition) at 200 ppm [2] | mortality at 200 ppm [3] | percent effect (mortality or growth inhibition) at 200 ppm [4] | mortality at 200 ppm [5] | percent control (mortality, anti-feeding effect or growth inhibition) at 200 ppm [7]

CCS(=O)(=O)c1cccnc1-c1nc2cc(S(=O)(=NC(C)=O)C(F)(F)F)ccc2o1 (stereo not drawn) [P17, N-[[2-(3-ethylsulfonyl-2-pyridyl)-1,3-benzoxazol-5-yl]-oxo-(trifluoromethyl)-λ^6-sulfanylidene]acetamide]
≥ 80%: percent effect (mortality or growth inhibition) at 200 ppm [1] | effect (mortality or growth inhibition) at 200 ppm [2] | percent effect (mortality or growth inhibition) at 200 ppm [4] | mortality at 200 ppm [5] | mortality at 200 ppm [6] | percent control (mortality, anti-feeding effect or growth inhibition) at 200 ppm [7]

CCN=S(=O)(c1cnc2c(c1)nc(-c1ncc(C3(C#N)CC3)cc1S(=O)(=O)CC)n2C)C(F)(F)F (stereo not drawn) [P20, 1-[5-ethylsulfonyl-6-[6-[N-ethyl-S-(trifluoromethyl)sulfonimidoyl]-3-methyl-imidazo[4,5-b]pyridin-2-yl]-3-pyridyl]cyclopropanecarbonitrile]
≥ 80%: percent effect (mortality or growth inhibition) at 200 ppm [1] | effect (mortality or growth inhibition) at 200 ppm [2] | mortality at 200 ppm [3] | percent effect (mortality or growth inhibition) at 200 ppm [4] | mortality at 200 ppm [5] | percent control (mortality, anti-feeding effect or growth inhibition) at 200 ppm [7] | mortality at 24 ppm [8]

CCS(=O)(=O)c1cc(C2(C#N)CC2)cnc1-c1nc2cc(S(=N)(=O)C(F)(F)F)cnc2n1C (stereo not drawn) [P21, 1-[5-ethylsulfonyl-6-[3-methyl-6-(trifluoromethylsulfonimidoyl)imidazo[4,5-b]pyridin-2-yl]-3-pyridyl]cyclopropanecarbonitrile]
≥ 80%: percent effect (mortality or growth inhibition) at 200 ppm [1] | effect (mortality or growth inhibition) at 200 ppm [2] | mortality at 200 ppm [3] | percent effect (mortality or growth inhibition) at 200 ppm [4] | mortality at 200 ppm [5] | percent control (mortality, anti-feeding effect or growth inhibition) at 200 ppm [7] | mortality at 24 ppm [8]

CCS(=O)(=O)c1cc(OCC(C)(F)F)cnc1-c1nc2cc(S(=N)(=O)C(F)(F)F)ccc2o1 (stereo not drawn) [P26, [2-[5-(2,2-difluoropropoxy)-3-ethylsulfonyl-2-pyridyl]-1,3-benzoxazol-5-yl]-imino-oxo-(trifluoromethyl)-λ^6-sulfane]
≥ 80%: percent effect (mortality or growth inhibition) at 200 ppm [1] | effect (mortality or growth inhibition) at 200 ppm [2] | mortality at 200 ppm [3] | percent effect (mortality or growth inhibition) at 200 ppm [4] | mortality at 200 ppm [5] | percent control (mortality, anti-feeding effect or growth inhibition) at 200 ppm [7]

CCN=S(=O)(c1ccc2oc(-c3ncc(OCC(C)(F)F)cc3S(=O)(=O)CC)nc2c1)C(F)(F)F (stereo not drawn) [P27, [2-[5-(2,2-difluoropropoxy)-3-ethylsulfonyl-2-pyridyl]-1,3-benzoxazol-5-yl]-ethylimino-oxo-(trifluoromethyl)-λ^6-sulfane]
≥ 80%: percent effect (mortality or growth inhibition) at 200 ppm [1] | effect (mortality or growth inhibition) at 200 ppm [2] | mortality at 200 ppm [3] | percent effect (mortality or growth inhibition) at 200 ppm [4] | mortality at 200 ppm [5] | percent control (mortality, anti-feeding effect or growth inhibition) at 200 ppm [7]

CCN=S(=O)(c1ccc2c(c1)nc(-c1ncc(C3(C#N)CC3)cc1S(=O)(=O)CC)n2C)C(F)(F)F (stereo not drawn) [P32, 1-[5-ethylsulfonyl-6-[5-[N-ethyl-S-(trifluoromethyl)sulfonimidoyl]-1-methyl-benzimidazol-2-yl]-3-pyridyl]cyclopropanecarbonitrile]
≥ 80%: percent effect (mortality or growth inhibition) at 200 ppm [1] | effect (mortality or growth inhibition) at 200 ppm [2] | percent effect (mortality or growth inhibition) at 200 ppm [4] | percent control (mortality, anti-feeding effect or growth inhibition) at 200 ppm [7] | mortality at 24 ppm [8]

CCS(=O)(=O)c1cc(C2(C#N)CC2)cnc1-c1nc2cc(S(=N)(=O)C(F)(F)F)ccc2n1C (stereo not drawn) [P33, 1-[5-ethylsulfonyl-6-[1-methyl-5-(trifluoromethylsulfonimidoyl)benzimidazol-2-yl]-3-pyridyl]cyclopropanecarbonitrile]
≥ 80%: percent effect (mortality or growth inhibition) at 200 ppm [1] | effect (mortality or growth inhibition) at 200 ppm [2] | percent effect (mortality or growth inhibition) at 200 ppm [4] | mortality at 200 ppm [6] | percent control (mortality, anti-feeding effect or growth inhibition) at 200 ppm [7]

CCS(=O)(=O)c1cc(C2(C#N)CC2)cnc1-c1nc2cc(S(=O)(=NCC(F)(F)F)C(F)(F)F)ccc2n1C (stereo not drawn) [P34, 1-[5-ethylsulfonyl-6-[1-methyl-5-[N-(2,2,2-trifluoroethyl)-S-(trifluoromethyl)sulfonimidoyl]benzimidazol-2-yl]-3-pyridyl]cyclopropanecarbonitrile]
≥ 80%: percent effect (mortality or growth inhibition) at 200 ppm [1] | effect (mortality or growth inhibition) at 200 ppm [2] | percent effect (mortality or growth inhibition) at 200 ppm [4] | mortality at 200 ppm [6] | percent control (mortality, anti-feeding effect or growth inhibition) at 200 ppm [7]

CCS(=O)(=O)c1cc(-c2nccc(C(F)(F)F)n2)cnc1-c1nc2cc(S(=N)(=O)C(F)(F)F)ccc2o1 (stereo not drawn) [P40, [2-[3-ethylsulfonyl-5-[4-(trifluoromethyl)pyrimidin-2-yl]-2-pyridyl]-1,3-benzoxazol-5-yl]-imino-oxo-(trifluoromethyl)-λ^6-sulfane]
≥ 80%: percent effect (mortality or growth inhibition) at 200 ppm [1] | effect (mortality or growth inhibition) at 200 ppm [2] | mortality at 200 ppm [3] | percent effect (mortality or growth inhibition) at 200 ppm [4] | percent control (mortality, anti-feeding effect or growth inhibition) at 200 ppm [7]

Source: US12503461B2, “Pesticidally active heterocyclic derivatives with sulfur and sulfoximine containing substituents” (SYNGENTA CROP PROTECTION AG, priority 2019, dated 2025)
